Measured values as given in ChEMBL document CHEMBL2057087, “Design, synthesis and vasodilative activity of tanshinone IIA derivatives” (2012).

Assays:
Aorta [1] = assay: Vasodilatory activity in Wistar rat thoracic aorta rings assessed as inhibition of norepinephrine hydrochloride-induced contraction at 1 X 10 '-4 M; assay type: functional
Aorta [2] = assay: Vasodilatory activity in Wistar rat thoracic aorta rings assessed as inhibition of norepinephrine hydrochloride-induced contraction; assay type: functional, tissue-based

Row | Structure (SMILES) | inhibition at 100 µM (Aorta [1]) | inhibition (Aorta [2])
1 | Cc1coc2c1C(=O)C(=O)c1c-2ccc2c1C(OC(=O)c1ccc(F)cc1)CCC2(C)C (stereo not given) | -3.3% | 
2 | COc1ccc(C(=O)OC2CCC(C)(C)c3ccc4c(c32)C(=O)C(=O)c2c(C)coc2-4)cc1 (stereo not given) | 23.5% | Dose-dependent effect
3 | Cc1coc2c1C(=O)C(=O)c1c-2ccc2c1C(OC(=O)c1ccccc1F)CCC2(C)C (stereo not given) | 21.8% | Dose-dependent effect
4 | Cc1coc2c1C(=O)C(=O)c1c-2ccc2c1C(OC(=O)Cc1ccc(O)cc1)CCC2(C)C (stereo not given) | -1.67% | 
5 | Cc1coc2c1C(=O)C(=O)c1c-2ccc2c1C(OC(=O)c1cccc(F)c1)CCC2(C)C (stereo not given) | -3.59% | 
6 | COc1ccc(CC(=O)OC2CCC(C)(C)c3ccc4c(c32)C(=O)C(=O)c2c(C)coc2-4)cc1 (stereo not given) | 20.2% | 
7 | Cc1coc2c1C(=O)C(=O)c1c-2ccc2c1C(OC(=O)Cc1ccccc1F)CCC2(C)C (stereo not given) | 1.92% | 
8 | Cc1coc2c1C(=O)C(=O)c1c-2ccc2c1C(OC(=O)Cc1ccc(F)cc1)CCC2(C)C (stereo not given) | -13.3% | 
9 | Cc1coc2c1C(=O)C(=O)c1c-2ccc2c1CCCC2(C)C [TANSHINONE IIA] | 1.86% | 
10 | Cc1coc2c1C(=O)C(=O)c1c-2ccc2c1C(OC(=O)Cc1ccccc1)CCC2(C)C (stereo not given) | -17.8% | 
11 | COc1cccc(CC(=O)OC2CCC(C)(C)c3ccc4c(c32)C(=O)C(=O)c2c(C)coc2-4)c1 (stereo not given) | 29.4% | Dose-dependent effect
12 | Cc1coc2c1C(=O)C(=O)c1c-2ccc2c1C(OC(=O)c1cccc(O)c1)CCC2(C)C (stereo not given) | 19.1% | 
13 | Cc1coc2c1C(=O)C(=O)c1c-2ccc2c1C(OC(=O)Cc1ccccc1O)CCC2(C)C (stereo not given) | -0.37% | 
14 | Cc1coc2c1C(=O)C(=O)c1c-2ccc2c1C(OC(=O)Cc1cccc(O)c1)CCC2(C)C (stereo not given) | -4.92% | 
15 | Cc1coc2c1C(=O)C(=O)c1c-2ccc2c1C(OC(=O)c1ccccc1O)CCC2(C)C (stereo not given) | 22.4% | Dose-dependent effect
16 | Cc1coc2c1C(=O)C(=O)c1c-2ccc2c1C(OC(=O)Cc1cccc(F)c1)CCC2(C)C (stereo not given) | -2.78% | 
17 | COc1ccccc1C(=O)OC1CCC(C)(C)c2ccc3c(c21)C(=O)C(=O)c1c(C)coc1-3 (stereo not given) | 7.58% | 
18 | COc1cccc(C(=O)OC2CCC(C)(C)c3ccc4c(c32)C(=O)C(=O)c2c(C)coc2-4)c1 (stereo not given) | -0.25% | 
19 | Cc1coc2c1C(=O)C(=O)c1c-2ccc2c1C(OC(=O)c1ccccc1)CCC2(C)C (stereo not given) | -9.41% | 
20 | COc1ccccc1CC(=O)OC1CCC(C)(C)c2ccc3c(c21)C(=O)C(=O)c1c(C)coc1-3 (stereo not given) | 12.8% | 
21 | Cc1coc2c1C(=O)C(=O)c1c-2ccc2c1C(OC(=O)c1ccc(O)cc1)CCC2(C)C (stereo not given) | 9.39% | 
